Literature values, collected in patent US6703346B2, “Herbicide compositions comprising imidazolinone acid, methods of preparation, and methods of use” (Platte Chemical Co., priority 2001, dated 2004).

Details: general statement, no measurement described

Molecule	pKa
CC(C)C1(C)N=C(c2nc3ccccc3cc2C(=O)O)NC1=O (stereo not drawn) [imazaquin]	approximately 3.8
CCc1cnc(C2=NC(C)(C(C)C)C(=O)N2)c(C(=O)O)c1 (stereo not drawn) [imazethapyr]	approximately 3.9
imazamethbenz	approximately 2.9
